Measured values from PMC6511888, “Synthesis, Biological Evaluation, and Molecular Modeling Studies of New Thiadiazole Derivatives as Potent P2X7 Receptor Inhibitors” (Frontiers in Chemistry, 2019).

What was measured:
[1] = test system: mouse peritoneal macrophages; test: LDH release assay (toxicity); format: cell-based; conditions: relative to maximum LDH release caused by 0.05% Triton X-100, mean ± SD
Protocol: (§1) Mouse peritoneal macrophages (5 × 10^5 cells) and HEK-293 cells transfected with P2X7R (5 × 10^5 cells) were plated in a 96-well-plate for 24 h before the treatment. […] The supernatant collected in this assay was used to measure the presence of LDH in the media using a cytotoxicity detection kit (Sigma kit for LDH) according to the manufacturer's instructions (Faria et al., [2018]).

[2] = LDH release assay (toxicity); format: cell-based, mouse; conditions: mouse peritoneal macrophages; 24 h; read-out: Macrophages IC50 (toxic effect)
Protocol: as §1

P2X7R = molecular target: T1, P2X7R (Mus musculus, UniProt Q9Z1M0); test: Dye uptake assay (propidium iodide) in mouse peritoneal macrophages; format: cell-based; conditions: mean ± SD
T1 construct: plated for 24 h before dye uptake assays, whole-cell patch clamp experiments, and IL-1β release assays; endogenous in cells; host or cells: mouse (Swiss Webster) peritoneal macrophages
T1 sequence (Q9Z1M0 1-595): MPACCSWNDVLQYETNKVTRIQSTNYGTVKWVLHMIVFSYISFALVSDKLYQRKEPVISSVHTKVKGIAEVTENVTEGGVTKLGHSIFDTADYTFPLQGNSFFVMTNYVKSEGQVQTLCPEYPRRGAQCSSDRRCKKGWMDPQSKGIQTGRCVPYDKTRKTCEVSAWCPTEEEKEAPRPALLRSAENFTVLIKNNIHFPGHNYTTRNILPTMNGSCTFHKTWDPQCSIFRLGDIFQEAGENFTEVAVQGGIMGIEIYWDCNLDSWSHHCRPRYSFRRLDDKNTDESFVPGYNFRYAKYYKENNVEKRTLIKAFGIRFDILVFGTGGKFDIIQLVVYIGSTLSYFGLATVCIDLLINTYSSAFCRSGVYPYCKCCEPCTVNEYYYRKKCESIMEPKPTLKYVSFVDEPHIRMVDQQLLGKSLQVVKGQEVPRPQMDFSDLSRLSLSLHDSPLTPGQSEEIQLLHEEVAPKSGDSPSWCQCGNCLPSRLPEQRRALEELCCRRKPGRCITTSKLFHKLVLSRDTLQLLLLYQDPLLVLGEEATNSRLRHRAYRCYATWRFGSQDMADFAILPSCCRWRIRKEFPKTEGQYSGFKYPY
Protocol: Our protocols adhered to the Ethical Principles in Animal Experimentation adopted by the Brazilian College of Animal Experimentation and approved by the FIOCRUZ Research Ethics Committee (Faria et al., [2005]; number L039- 2016). Male mouse (Swiss Webster) peritoneal macrophages were collected from peritoneal cavity lavage and plated for 24 h before dye uptake assays, whole-cell patch clamp experiments, and IL-1β release assays.
(§2) HEK-293 cells transfected with hP2X7R and mouse peritoneal macrophages were plated at 2.5 × 10^6 or 5 × 10^5 cells/ml, respectively, in 96-well culture plates containing DMEM with 10% FBS and anti-biotics (50 U/ml penicillin and […] streptomycin) in a humidified 5% CO2 atmosphere at 37°C for 24 h (Faria et al., [2018]).
[…] In the last 5 min of ATP incubation, propidium iodide for macrophages (PI; 750 nM) or ethidium bromide (EB; 25 μM) for HEK-293 cells was added to all wells. PI dye was excited at a wavelength of 530 nm, and its fluorescence emission was read at a wavelength of 590 nm using an M5 plate reader (Molecular Devices). EB dye was excited at a wavelength of 530 nm and emitted at a wavelength of 620 nm.

[3] = test system: P2X7R-mediated IL-1β release; test: ATP-induced IL-1β release (ELISA) in differentiated THP-1 cells; format: cell-based, human; conditions: ATP-induced IL-1β release; LPS/IFN-differentiated human THP-1 cells; read-out: THP-1 cells IC50
Protocol: P2X7R-mediated IL-1β release was obtained from differentiated THP-1 cells stimulated with lipopolysaccharide (LPS) before ATP addition. […] THP-1 cells were differentiated with 500 ng/ml phorbol 12-myristate 13-acetate (PMA) and 10 ng/ml IFN-γ cotreatment for 24 h. These cells were activated with 25 ng/ml LPS for 4 h. […] P2X7R antagonists (BBG and A740003) and thiadiazole analogs were added 30 min before the ATP stimulus. The supernatants were collected, centrifuged (1,000 rpm for 5 min at 4°C), and stored at −70°C after LPS incubation. IL-1β was quantified using a standard kit (ABCAM, Cambridge).

human P2X7R = molecular target: T2, human P2X7R (Homo sapiens, UniProt Q99572); test: Dye uptake assay (ethidium bromide) in HEK-293 cells transfected with hP2X7R; format: cell-based; conditions: ethidium uptake assay; HEK-293 cells transfected with human P2X7R; mean ± SD
T2 construct: expressed in transfected cells; host or cells: HEK-293
T2 sequence (Q99572 1-595): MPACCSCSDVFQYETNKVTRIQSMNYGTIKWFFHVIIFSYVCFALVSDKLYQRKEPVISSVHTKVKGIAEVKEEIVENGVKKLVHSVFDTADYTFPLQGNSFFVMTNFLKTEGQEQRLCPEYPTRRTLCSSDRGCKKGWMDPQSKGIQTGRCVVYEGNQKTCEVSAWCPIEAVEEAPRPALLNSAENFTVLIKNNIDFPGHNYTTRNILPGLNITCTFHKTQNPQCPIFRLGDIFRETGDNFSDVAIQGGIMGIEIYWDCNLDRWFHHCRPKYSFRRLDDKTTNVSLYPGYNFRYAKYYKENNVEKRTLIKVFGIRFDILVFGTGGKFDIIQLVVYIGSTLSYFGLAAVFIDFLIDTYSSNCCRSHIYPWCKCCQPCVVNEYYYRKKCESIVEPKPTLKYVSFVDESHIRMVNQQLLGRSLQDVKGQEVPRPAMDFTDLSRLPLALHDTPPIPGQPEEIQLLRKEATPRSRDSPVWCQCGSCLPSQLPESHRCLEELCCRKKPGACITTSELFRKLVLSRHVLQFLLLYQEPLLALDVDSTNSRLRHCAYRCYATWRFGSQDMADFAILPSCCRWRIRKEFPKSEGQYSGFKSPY
Protocol: HEK-293 cells expressing human P2X7R were maintained in Dulbecco's modified Eagle's medium (DMEM; Sigma-Aldrich) supplemented with 10% fetal bovine serum (FBS; Prolab, Br) and anti-biotics (50 U/ml penicillin and […] streptomycin) in a humidified 5% CO2 atmosphere at 37°C (Faria et al., [2018]). A total of 5 × 10^5 cells were plated at 37°C in a humidified 5% CO2 atmosphere for 24 h in a 96-well plate for dye uptake or IL-1β release assays.
as §2
P2X7R antagonist and thiadiazole analogs (1 nM to 0.5 mM) were incubated for 5 min before ATP (5 mM) treatment for 20 min. In the last 5 min of ATP incubation, propidium iodide for macrophages (PI; 750 nM) or ethidium bromide (EB; 25 μM) for HEK-293 cells was added to all wells. PI dye was excited at a wavelength of 530 nm, and its fluorescence emission was read at a wavelength of 590 nm using an M5 plate reader (Molecular Devices). EB dye was excited at a wavelength of 530 nm and emitted at a wavelength of 620 nm.

P2Y13R = molecular target: T3, P2Y13R (Homo sapiens, UniProt Q9BPV8); test: ADPβS-induced [Ca2+]i shifts in HEP2G cells; format: cell-based; conditions: 1 μM
T3 construct: endogenous in cells; host or cells: HEP2G (HEPG2) cells
T3 sequence (Q9BPV8 1-354): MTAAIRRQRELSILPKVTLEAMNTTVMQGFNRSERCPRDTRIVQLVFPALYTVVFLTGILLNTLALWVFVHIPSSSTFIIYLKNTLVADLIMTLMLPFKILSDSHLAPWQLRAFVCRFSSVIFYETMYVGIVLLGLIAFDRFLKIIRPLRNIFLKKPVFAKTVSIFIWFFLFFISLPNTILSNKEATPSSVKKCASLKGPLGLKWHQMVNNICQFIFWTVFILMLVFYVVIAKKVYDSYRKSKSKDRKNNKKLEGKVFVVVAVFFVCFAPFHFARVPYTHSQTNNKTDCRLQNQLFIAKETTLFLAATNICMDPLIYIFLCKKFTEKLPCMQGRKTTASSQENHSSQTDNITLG
Protocol: (§3) Mouse peritoneal macrophages, PC12 cells, J774 cells, and HEPG2 cells were analyzed by fluorescence microscopy to measure the intracellular Ca^2+ concentrations ([Ca^2+]i). Cells were incubated with 2 μM Fura-2-AM (Molecular Probes) for 30 min, and the [Ca^2+]i mobilization was measured in the F340/F380 ratios with a FlexStation 3 multimode microplate reader (Molecular Devices). Cells were plated in translucent 96-well plates (BD Falcon) for 15 min and then washed and incubated in a saline solution with 150 NaCl, 5 KCl, 1 MgCl2, 1 CaCl2, and 10 HEPES (pH 7.4) for 30 min before measurements of [Ca^2+]i. The Ca^2+ influx was induced by stimulating cells with P2 receptor agonists. P2 receptor antagonists were added 10 min before P2 receptor agonist addition. […] Ionomycin was considered a positive control, and the other recordings were normalized in relation to the AUC.

P2Y4R = molecular target: T4, P2Y4R (Mus musculus, UniProt Q9JJS7); test: MRS4062-induced [Ca2+]i shifts in mice peritoneal macrophages; format: cell-based; conditions: 1 μM
T4 construct: endogenous in cells; host or cells: mouse peritoneal macrophages
Protocol: as §3

P2Y11R = test: NAADP-induced [Ca2+]i shifts in mouse peritoneal macrophages; format: cell-based; conditions: 1 μM
Protocol: as §3

P2Y12R = molecular target: T5, P2Y12R (Mus musculus, UniProt Q9CPV9); test: 2MeSADP-activated [Ca2+]i shifts in mouse peritoneal macrophages; format: cell-based; conditions: 1 μM
T5 construct: endogenous in cells; host or cells: mouse peritoneal macrophages

[4] = percentage relative to the maximum uptake of propidium stimulated by 1 mM ATP only

T4 sequence (Q9JJS7 whole entry): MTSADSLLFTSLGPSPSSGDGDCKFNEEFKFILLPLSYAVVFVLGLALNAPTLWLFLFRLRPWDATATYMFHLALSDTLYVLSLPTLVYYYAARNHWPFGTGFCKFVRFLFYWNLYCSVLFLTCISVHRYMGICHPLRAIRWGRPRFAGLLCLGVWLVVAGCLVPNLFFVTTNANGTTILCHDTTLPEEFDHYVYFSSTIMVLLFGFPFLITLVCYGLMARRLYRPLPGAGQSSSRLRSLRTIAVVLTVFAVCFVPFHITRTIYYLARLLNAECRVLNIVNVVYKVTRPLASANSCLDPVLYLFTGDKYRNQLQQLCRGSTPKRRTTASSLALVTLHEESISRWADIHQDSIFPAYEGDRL
T5 sequence (Q9CPV9 whole entry): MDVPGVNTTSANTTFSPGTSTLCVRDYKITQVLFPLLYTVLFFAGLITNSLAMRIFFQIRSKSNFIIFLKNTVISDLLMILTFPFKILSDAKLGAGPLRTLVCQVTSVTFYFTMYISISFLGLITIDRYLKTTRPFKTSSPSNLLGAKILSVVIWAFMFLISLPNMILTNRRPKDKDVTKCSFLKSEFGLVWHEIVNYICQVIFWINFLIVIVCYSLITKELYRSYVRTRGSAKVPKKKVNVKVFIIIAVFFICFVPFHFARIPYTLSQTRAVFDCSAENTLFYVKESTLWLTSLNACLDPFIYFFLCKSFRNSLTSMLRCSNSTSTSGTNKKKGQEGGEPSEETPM

| SMILES | melting point | inhibition at 10 µM (P2X7R; [4]) | % LDH release ([1]; 10 μM, cell type not given) | other results |
| --- | --- | --- | --- | --- |
| CCOc1ccc(Nc2ccc(/C(=C3C=C/C(=[N+](/CC)Cc4cccc(S(=O)(=O)[O-])c4)C=C/3C)c3ccc(N(CC)Cc4cccc(S(=O)(=O)O)c4)cc3C)cc2)cc1 [BBG, Brilliant Blue G, reference compound] | – | – | – | % LDH release ([1]; BBG 750 nM): 13.2 ± 2.6%; IC50 at 24 h [2]: 87000 ± 1000 nM; inhibition at 0.75 µM (P2X7R; BBG 750 nM, percentage relative to the maximum uptake of propidium stimulated by 1 mM ATP only): 78.8 ± 3.8%; IC50 (P2X7R; propidium uptake assay, mice peritoneal macrophages): 1200 ± 100 nM; IC50 [3]: 1900 ± 300 nM; IC50 (human P2X7R): 589 ± 12 nM |
| N#Cc1cnn(-c2nnc(-c3ccccc3)s2)c1N [Compound 9a] | 234 to 235 °C | 89.2 ± 2.2% | 58.1 ± 4.8% | – |
| N#Cc1cnn(-c2nnc(-c3ccc(Cl)cc3)s2)c1N [Compound 9d] | > 300 °C | 62.2 ± 4.02% | 46.3 ± 5.12% | – |
| CCOC(=O)c1cnn(-c2nnc(-c3ccccc3)s2)c1N [Compound 9e] | 165 to 167 °C | 90.2 ± 0.4% | 36.3 ± 11.0% | – |
| CCOC(=O)c1cnn(-c2nnc(-c3ccc(F)cc3)s2)c1N [Compound 9g] | 250 to 251 °C | 90.8 ± 1.1% | 22.6 ± 0.3% | – |
| CCOC(=O)c1cnn(-c2nnc(-c3ccc(Cl)cc3)s2)c1N [Compound 9h] | 252 to 253 °C | 64 ± 3.7% | 15 ± 1.9% | – |
| Cc1nc(N=Nc2cc([N+](=O)[O-])ccc2Cl)c(COP(=O)(O)O)c(C=O)c1O [MRS2211] | – | – | – | Effect on ADPβS-induced [Ca2+]i shifts (P2Y13R): inhibited |
| S=C=Nc1cccc(NC(=S)NCCCCNC(=S)Nc2cccc(N=C=S)c2)c1 [MRS2578] | – | – | – | Effect on MRS4062-induced [Ca2+]i shifts (P2Y4R): inhibited |
| Cc1ccc(C(=O)Nc2cc(S(=O)(=O)O)cc3ccc(S(=O)(=O)O)cc23)cc1NC(=O)Nc1cc(C(=O)Nc2cc(S(=O)(=O)O)cc3ccc(S(=O)(=O)O)cc23)ccc1C [NF340] | – | – | – | Effect on NAADP-induced [Ca2+]i shifts (P2Y11R): inhibited |
| CCCSc1nc(N[C@@H]2C[C@H]2c2ccc(F)c(F)c2)c2nnn([C@@H]3C[C@H](OCCO)[C@@H](O)[C@H]3O)c2n1 [Ticagrelor] | – | – | – | Effect on 2MeSADP-activated [Ca2+]i shifts (P2Y12R): inhibited |

Further lines, with some results ahead:

| melting point | inhibition at 10 µM (P2X7R; [4]) | SMILES | % LDH release ([1]; 10 μM, cell type not given) | other results |
| --- | --- | --- | --- | --- |
| 170 to 171 °C | 92.5 ± 0.3% | Cc1cc(C)n(-c2nnc(-c3ccccc3)s2)n1 [Compound 11a] | 34.1 ± 2% | – |
| 163 to 165 °C | 89.7 ± 2.6% | Cc1cc(C)n(-c2nnc(-c3ccccc3Cl)s2)n1 [Compound 11b] | 45.7 ± 1.7% | – |
| 202 to 203 °C | 69.8 ± 0.7% | Cc1cc(C)n(-c2nnc(-c3ccc(Cl)cc3)s2)n1 [Compound 11d] | 36.94 ± 10.6% | – |
| 183 to 185 °C | 90.5 ± 1.4% | CC1(O)CC(C(F)(F)F)=NN1c1nnc(-c2ccccc2)s1 (stereo not drawn) [Compound 13a] | 8 ± 0.6% | – |
| – | 90.7 ± 1.6% | CC1(O)CC(C(F)(F)F)=NN1c1nnc(-c2ccccc2Cl)s1 (stereo not drawn) [Compound 13b] | 19.6 ± 0.6% | – |
| 182 to 183 °C | 92 ± 0.4% | CC1(O)CC(C(F)(F)F)=NN1c1nnc(-c2ccc(F)cc2)s1 (stereo not drawn) [Compound 13c] | 45.3 ± 1.4% | – |
| 184 to 185 °C | 71 ± 0.2% | CC1(O)CC(C(F)(F)F)=NN1c1nnc(-c2ccc(Cl)cc2)s1 (stereo not drawn) [Compound 13d] | 38.5 ± 6.2% | – |
| 163 to 164 °C | 91 ± 1% | Cc1cc(C(F)(F)F)nn1-c1nnc(-c2ccccc2)s1 [Compound 14a] | 32 ± 1% | – |
| 139 to 140 °C | 92 ± 2% | Cc1cc(C(F)(F)F)nn1-c1nnc(-c2ccccc2Cl)s1 [Compound 14b] | 26.6 ± 1.2% | – |
| 149 to 150 °C | 92.5 ± 0.4% | Cc1cc(C(F)(F)F)nn1-c1nnc(-c2ccc(F)cc2)s1 [Compound 14c] | 10.6 ± 0.5% | – |
| 147 to 148 °C | 54.7 ± 0.5% | Cc1cc(C(F)(F)F)nn1-c1nnc(-c2ccc(Cl)cc2)s1 [Compound 14d] | 43 ± 5% | – |
